In ChEMBL document CHEMBL1135844, “Novel human metabolites of the angiotensin-II antagonist tasosartan and their pharmacological effects” (Bioorg Med Chem Lett, 2002) one finds IC50 data, which are given here for four compounds.

SMILES strings stand for the structures.

The target in this test is T1, Type-1 angiotensin II receptor (Homo sapiens, UniProt P30556).
T1 sequence (P30556 whole entry): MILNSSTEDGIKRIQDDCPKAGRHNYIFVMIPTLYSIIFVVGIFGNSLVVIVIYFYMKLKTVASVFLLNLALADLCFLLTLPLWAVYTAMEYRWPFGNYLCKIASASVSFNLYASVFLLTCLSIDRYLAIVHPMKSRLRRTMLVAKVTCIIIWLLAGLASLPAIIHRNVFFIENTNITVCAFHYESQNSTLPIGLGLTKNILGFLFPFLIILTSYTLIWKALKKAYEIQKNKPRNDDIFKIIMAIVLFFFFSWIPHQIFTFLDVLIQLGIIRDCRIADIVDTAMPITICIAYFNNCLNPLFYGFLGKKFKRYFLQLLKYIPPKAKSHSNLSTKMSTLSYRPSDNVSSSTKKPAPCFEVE
As to the kind of experiment: Compound was tested in vitro for inhibitory activity against human Angiotensin II receptor in cultured preadipocytes. The class given is cell-based.

In turn, `Cc1nc(C(=O)O)c2c(n1)N(Cc1ccc(-c3ccccc3-c3nnn[nH]3)cc1)C(=O)CC2` showed an IC50 of 44 nM. Next, `O=c1ccc2c(CO)nc(CO)nc2n1Cc1ccc(-c2ccccc2-c2nn[nH]n2)cc1`: 44 nM.

As for `Cc1nc(C)c2c(n1)N(Cc1ccc(-c3ccccc3-c3nnn[nH]3)cc1)C(=O)CC2` [TASOSARTAN], the IC50 turned out to be 38 nM. The value for `Cc1nc(C(=O)O)nc2c1CCC(=O)N2Cc1ccc(-c2ccccc2-c2nnn[nH]2)cc1` was 23 nM.

In general, IC50 refers to the point on the concentration scale where inhibition reaches its midpoint. High values mean a need for much substance, low ones inhibition by little substance.
